Tested on: liver MPS NASH model + TGFβ (PHH, KC and HSC co-cultures, high fat)
Experiment: Secreted cytokine profile of enhanced liver MPS NASH model with TGFβ dosed with OCA or ELF (Fig 6a)
Assay type: cell-based, human
Details: for IL-1RA production, fold change compared to control / IL-4 production, fold change compared to control / IL-6 production, fold change compared to control / IL-8 production, fold change compared to control / IP-10 production, fold change compared to control / MCP-1 production, fold change compared to control / MIP-1a production, fold change compared to control / MIP-1b production, fold change compared to control / VEGF production, fold change compared to control: vs NASH + TGFβ control; for cytokine on which the drug had the greatest effect: NASH microtissues, high NPC, + TGFβ
Source text: The systems biology approach identified TGFβ to be a key driver in creating a more advanced NASH phenotype in the MPS model, with enhanced fibrotic markers and reduced liver function. […] Therefore, we explored how effective pharmacological intervention would be for NASH microtissues with high NPC numbers supplemented with TGFβ and exposed them to varying concentrations of OCA and ELF QD as previously described (Supp. Fig. 6a). […] OCA had the greatest effect on IL-1Rα whereas ELF had the greatest effect on MCP-1 reflecting the fact that while both candidate drugs have anti-inflammatory properties, but their mechanisms of action are different. […] Finally, we used our quantitative fibrosis imaging assay to assess the effect of each candidate drug on collagen-1 deposition and α-SMA expression (Fig. 6c). […] Both candidate drugs caused a significant reduction in collagen-1 deposition and α-SMA expression, with the highest concentrations of OCA and ELF causing an 80% reduction in α-SMA expression and a 75% reduction in collagen-1 deposition (Fig. 6c).
Fig. 6 Using enhanced liver MPS NASH model with TGFβ, Obeticholic acid and Elafibranor modulate disease phenotype to a greater extent than in standard NASH model. PHH, KC and HSC co-cultures were cultured in the MPS platform under high-fat conditions and dosed with varying concentrations of Obeticholic acid (OCA) and Elafibranor (ELF) QD or vehicle control for 10 days, following an initial 4-day pre-culture phase. Throughout the compound dosing period TGFβ was also dosed onto all microtissues (NASH only vehicle control samples were also included in the study for comparison, which were not treated with TGFβ or dosed with any compound). a The secreted cytokine profile from treated liver microtissues was compared to determine the effects of each compound on the inflammatory profile of the liver with samples analysed at day 8 and 14 of the culture. Data were normalised by Z-transformation to allow comparison of all analytes (white = undetected). b The expression of fibrosis-associated biomarkers was analysed on day 14 media samples and compared to NASH + TGFβ control samples. c Liver microtissues were stained for collagen-type I, α-SMA, nuclei (DAPI), phalloidin (green) and imaged by confocal microscopy. Representative images are shown and scale bars 200 µm. Staining of microtissues was quantified by measuring total fluorescence intensity throughout individual microtissues, each data point represents an average of all microtissues per MPS culture (min 8, max 20). All datapoints shown with error bars highlighting means ± SD, all data from a minimum of three independent cultures: all comparisons were made to NASH + TGFβ control samples.
Cytokine profiles in cell culture medium samples were also analysed by Luminex array for determination of 38 analytes in total, consisting of cytokines, chemokines, and growth factors using the MILLIPLEX MAP Human Cytokine/Chemokine Magnetic Bead Panel - Premixed 38 Plex (Merck Millipore, USA).
Liver microtissues were cultured for 4 days in HEP-FAT medium, before dosing with obeticholic acid or elafibranor. Both compounds were dissolved in DMSO, diluted in cell culture medium (final DMSO concentration ≤1%) and added to microtissues during a full medium change every two days and in addition on the intervening days compounds were spiked into the media to increase drug concentration back to desired concentrations. Cultures were maintained in the presence of the compound, for a total of 10 days in the presence or absence of TGFβ.

Structure (SMILES): CSc1ccc(C(=O)/C=C/c2cc(C)c(OC(C)(C)C(=O)O)c(C)c2)cc1 [Elafibranor]
- IL-1RA production, fold change compared to control (1.3 µM, Day 8): 0.9952 fold change
- IL-4 production, fold change compared to control (1.3 µM, Day 8): 1.184 fold change
- IL-6 production, fold change compared to control (1.3 µM, Day 8): 1.1389 fold change
- IL-8 production, fold change compared to control (1.3 µM, Day 8): 1.023 fold change
- IP-10 production, fold change compared to control (1.3 µM, Day 8): 1.0718 fold change
- MCP-1 production, fold change compared to control (1.3 µM, Day 8): 1.264 fold change
- MIP-1a production, fold change compared to control (1.3 µM, Day 8): 0.709 fold change
- MIP-1b production, fold change compared to control (1.3 µM, Day 8): 0.6796 fold change
- VEGF production, fold change compared to control (1.3 µM, Day 8): 1.105 fold change
- IL-1RA production, fold change compared to control (1.3 µM, Day 14): 0.9067 fold change
- IL-4 production, fold change compared to control (1.3 µM, Day 14): 0.6872 fold change
- IL-6 production, fold change compared to control (1.3 µM, Day 14): 0.5754 fold change
- IL-8 production, fold change compared to control (1.3 µM, Day 14): 0.6606 fold change
- IP-10 production, fold change compared to control (1.3 µM, Day 14): 1.038 fold change
- MCP-1 production, fold change compared to control (1.3 µM, Day 14): 0.8586 fold change
- MIP-1a production, fold change compared to control (1.3 µM, Day 14): 0.6631 fold change
- VEGF production, fold change compared to control (1.3 µM, Day 14): 1.4873 fold change
- IL-1RA production, fold change compared to control (13 µM, Day 8): 1.265 fold change
- IL-4 production, fold change compared to control (13 µM, Day 8): 0.7184 fold change
- IL-6 production, fold change compared to control (13 µM, Day 8): 1.361 fold change
- IL-8 production, fold change compared to control (13 µM, Day 8): 0.9806 fold change
- IP-10 production, fold change compared to control (13 µM, Day 8): 0.6298 fold change
- MCP-1 production, fold change compared to control (13 µM, Day 8): 0.7964 fold change
- MIP-1a production, fold change compared to control (13 µM, Day 8): 0.7122 fold change
- MIP-1b production, fold change compared to control (13 µM, Day 8): 0.7615 fold change
- VEGF production, fold change compared to control (13 µM, Day 8): 1.5043 fold change
- IL-1RA production, fold change compared to control (13 µM, Day 14): 1.13 fold change
- IL-4 production, fold change compared to control (13 µM, Day 14): 0.4238 fold change
- IL-6 production, fold change compared to control (13 µM, Day 14): 0.6467 fold change
- IL-8 production, fold change compared to control (13 µM, Day 14): 0.4814 fold change
- IP-10 production, fold change compared to control (13 µM, Day 14): 0.5019 fold change
- MCP-1 production, fold change compared to control (13 µM, Day 14): 0.7625 fold change
- MIP-1a production, fold change compared to control (13 µM, Day 14): 0.5355 fold change
- VEGF production, fold change compared to control (13 µM, Day 14): 3.124 fold change
- IL-1RA production, fold change compared to control (65 µM, Day 8): 0.4291 fold change
- IL-4 production, fold change compared to control (65 µM, Day 8): 0.5702 fold change
- IL-6 production, fold change compared to control (65 µM, Day 8): 0.5734 fold change
- IL-8 production, fold change compared to control (65 µM, Day 8): 0.6965 fold change
- IP-10 production, fold change compared to control (65 µM, Day 8): 0.5276 fold change
- MCP-1 production, fold change compared to control (65 µM, Day 8): 0.2341 fold change
- MIP-1a production, fold change compared to control (65 µM, Day 8): 0.4239 fold change
- VEGF production, fold change compared to control (65 µM, Day 8): 1.511 fold change
- IL-1RA production, fold change compared to control (65 µM, Day 14): 0.4779 fold change
- IL-4 production, fold change compared to control (65 µM, Day 14): 0.2046 fold change
- IL-6 production, fold change compared to control (65 µM, Day 14): 0.3326 fold change
- IL-8 production, fold change compared to control (65 µM, Day 14): 0.254 fold change
- IP-10 production, fold change compared to control (65 µM, Day 14): 0.6289 fold change
- MCP-1 production, fold change compared to control (65 µM, Day 14): 0.1593 fold change
- VEGF production, fold change compared to control (65 µM, Day 14): 2.734 fold change
- cytokine on which the drug had the greatest effect: MCP-1

Structure (SMILES): CC[C@H]1[C@@H](O)[C@@H]2[C@H](CC[C@]3(C)[C@@H]([C@H](C)CCC(=O)O)CC[C@@H]23)[C@@]2(C)CC[C@@H](O)C[C@@H]12 [Obeticholic acid]
- IL-1RA production, fold change compared to control (0.25 µM, Day 8): 1.08 fold change
- IL-4 production, fold change compared to control (0.25 µM, Day 8): 1.009 fold change
- IL-6 production, fold change compared to control (0.25 µM, Day 8): 1.014 fold change
- IL-8 production, fold change compared to control (0.25 µM, Day 8): 1.005 fold change
- IP-10 production, fold change compared to control (0.25 µM, Day 8): 1.251 fold change
- MCP-1 production, fold change compared to control (0.25 µM, Day 8): 1.076 fold change
- MIP-1a production, fold change compared to control (0.25 µM, Day 8): 0.8432 fold change
- MIP-1b production, fold change compared to control (0.25 µM, Day 8): 0.7821 fold change
- VEGF production, fold change compared to control (0.25 µM, Day 8): 1.067 fold change
- IL-1RA production, fold change compared to control (0.25 µM, Day 14): 0.5028 fold change
- IL-4 production, fold change compared to control (0.25 µM, Day 14): 0.8171 fold change
- IL-6 production, fold change compared to control (0.25 µM, Day 14): 0.4566 fold change
- IL-8 production, fold change compared to control (0.25 µM, Day 14): 0.6873 fold change
- IP-10 production, fold change compared to control (0.25 µM, Day 14): 1.095 fold change
- MCP-1 production, fold change compared to control (0.25 µM, Day 14): 0.7086 fold change
- MIP-1a production, fold change compared to control (0.25 µM, Day 14): 0.8386 fold change
- VEGF production, fold change compared to control (0.25 µM, Day 14): 1.001 fold change
- IL-1RA production, fold change compared to control (5 µM, Day 8): 0.6972 fold change
- IL-4 production, fold change compared to control (5 µM, Day 8): 1.1399 fold change
- IL-6 production, fold change compared to control (5 µM, Day 8): 1.2962 fold change
- IL-8 production, fold change compared to control (5 µM, Day 8): 1.283 fold change
- IP-10 production, fold change compared to control (5 µM, Day 8): 1.04 fold change
- MCP-1 production, fold change compared to control (5 µM, Day 8): 0.9329 fold change
- MIP-1a production, fold change compared to control (5 µM, Day 8): 0.9021 fold change
- MIP-1b production, fold change compared to control (5 µM, Day 8): 0.7383 fold change
- VEGF production, fold change compared to control (5 µM, Day 8): 1.4206 fold change
- IL-1RA production, fold change compared to control (5 µM, Day 14): 0.2072 fold change
- IL-4 production, fold change compared to control (5 µM, Day 14): 1.048 fold change
- IL-6 production, fold change compared to control (5 µM, Day 14): 0.937 fold change
- IL-8 production, fold change compared to control (5 µM, Day 14): 0.8309 fold change
- IP-10 production, fold change compared to control (5 µM, Day 14): 1.661 fold change
- MCP-1 production, fold change compared to control (5 µM, Day 14): 0.6601 fold change
- MIP-1a production, fold change compared to control (5 µM, Day 14): 1.231 fold change
- MIP-1b production, fold change compared to control (5 µM, Day 14): 1.514 fold change
- VEGF production, fold change compared to control (5 µM, Day 14): 2.374 fold change
- IL-1RA production, fold change compared to control (12.5 µM, Day 8): 0.3318 fold change
- IL-4 production, fold change compared to control (12.5 µM, Day 8): 0.7385 fold change
- IL-6 production, fold change compared to control (12.5 µM, Day 8): 0.7346 fold change
- IL-8 production, fold change compared to control (12.5 µM, Day 8): 0.6207 fold change
- IP-10 production, fold change compared to control (12.5 µM, Day 8): 1.145 fold change
- MCP-1 production, fold change compared to control (12.5 µM, Day 8): 0.4485 fold change
- MIP-1a production, fold change compared to control (12.5 µM, Day 8): 1.263 fold change
- MIP-1b production, fold change compared to control (12.5 µM, Day 8): 1.247 fold change
- VEGF production, fold change compared to control (12.5 µM, Day 8): 1.208 fold change
- IL-1RA production, fold change compared to control (12.5 µM, Day 14): 0.02359 fold change
- IL-4 production, fold change compared to control (12.5 µM, Day 14): 0.2784 fold change
- IL-6 production, fold change compared to control (12.5 µM, Day 14): 0.3766 fold change
- IL-8 production, fold change compared to control (12.5 µM, Day 14): 0.4421 fold change
- IP-10 production, fold change compared to control (12.5 µM, Day 14): 0.932 fold change
- MCP-1 production, fold change compared to control (12.5 µM, Day 14): 0.2604 fold change
- MIP-1a production, fold change compared to control (12.5 µM, Day 14): 1.011 fold change
- MIP-1b production, fold change compared to control (12.5 µM, Day 14): 1.454 fold change
- VEGF production, fold change compared to control (12.5 µM, Day 14): 0.8682 fold change
- cytokine on which the drug had the greatest effect: IL-1Rα

Reference: publication PMC8443589, “Modelling human liver fibrosis in the context of non-alcoholic steatohepatitis using a microphysiological system” (Communications Biology, 2021)
